Data from patent publication US20060148732A1, “Inhibition of NF-kappaB by triterpene compositions” (priority 2000, published 2006).

Columns and labels:
Format in all cases: cell-based, human
[1] = tested on: Jurkat (T-cell leukemia) cells; assay: Cytotoxicity screen (MTT/crystal violet, 72 h); settings: for inhibitory concentration 50 (IC50), growth inhibition: MTT, 72 hours
Method: Each of the extracts was then screened against a panel of human tumor and non-tumor cells including human ovarian cancer cell lines, T-leukemic cells, human epidermoid cells, human breast cancer cells, human prostate cancer cells, human foreskin fibroblast cells, human endothelial cells, and human renal cancer cells. The cells were first plated in 96-well plates for 18-24 hours at 37° C. The cells were then exposed to varying concentrations of the plant extracts, and incubated for 72 hours at 37° C., and stained with either MTT (3-(4,5-dimethylethiazol-2-yl)-2,5-diphenyl tetrazolium bromide; Sigma Chemical Co.) for 4 hours or crystal violet (Sigma Chemical Co.) for 20 minutes at room temperature. The MTT plates received lysis buffer (20% sodium dodecyl sulfate in 50% DMF) and were incubated for an additional 6 hours before taking an OD reading at 570 nm. The crystal violet plates were washed, dye was extracted for 3-4 hours with Sorenson's buffer (0.1 M sodium citrate (pH 4.2), 50% v/v ethanol), and the plates were read at 570-600 nm (Mujoo et al., 1996). Cytotoxicity of the screened extracts was indicated by comparing the OD readings between the treated media alone and the cells treated with the plant extract. Percent cytotoxicity was calculated by 100-% of control, where % of control =[((OD of cells treated with plant extract (treated sample))/(OD of cells exposed to media alone (untreated sample)))×100].
Assay for Growth Inhibition. The growth inhibitory activity of F094 and avicins was measured by the MTT [3-(4, 5-Dimethylthiazol-2-yl)-2, 5-diphenyl tetrazolium bromide)] reduction assay (Deng et al., 1999). Cells (1×10^4/well) were cultured with varying concentrations of F094, avicin D, or avicin G in 96 well plates for 72 hours at 37° C. The cells were stained with MTT for 2 hours and then incubated with lysis buffer (20% sodium dodecyl sulfate in 50% N,N-dimethylformamide) for another 6 hours. Optical density at 570 nm was used as a measure of cell viability.

[2] = tested on: cytochrome c in Jurkat cells; assay: Cytochrome c release from mitochondria (western blot); settings: 2 μg/ml
Method: Release of cytochrome c from mitochondria in response to treatment with F035 was detected by western blotting. Jurkat cells (10 ×10^6) were treated with 2 μg/ml of F035 for 4 and 6 h at 37° C. Cell pellets were washed in sucrose buffer (0.25M sucrose, 30 mM Tris, pH 7.7, 1 mM EDTA). To the cell pellets added 20 μl of sucrose buffer containing 1 μM PMSF, 1 μg/ml leupeptin, 1 μg/ml pepstatin and 1 μg/ml aprotinin. Cells were disrupted by douncing 120 times in a 0.3 ml Kontes douncer with a B pestle (Kontes Glass company). Cellular protein (60 μg) was resolved on a 15% SDS-polyacrylamide gel and electrotransferred onto a nitrocellulose membrane. The membrane was probed first with monoclonal anti-cytochrome c antibody (PharMingen) and then with anti-mouse antibody conjugated to horse radish peroxidase (HRPO). Protein bands were detected by chemiluminescence (ECL, Amersham).
Detection of Cytochrome c Release from Mitochondria. Release of cytochrome c from mitochondria was detected by Western blot analysis. Jurkat cells (1×10^7) were treated with F094, avicin D, or avicin G (2 μg/ml) at 37° C. After washing the cell pellets in sucrose buffer (0.25 M sucrose, 30 mM Tris, pH 7.7, 1 mM EDTA), they were resuspended in 20 μl of sucrose buffer containing 1 μM PMSF, 1 μg/ml leupeptin, 1 μg/ml pepstatin, and 1 μg/ml aprotinin. Cells were disrupted by douncing 120 times in a 0.3 ml Kontes douncer (Kontes Glass Company, Vineland, N.J.) with a B pestle. Cellular protein (50 μg) was resolved on a 15% SDS-polyacrylamide gel and electrotransferred onto a nitrocellulose membrane. The membrane was probed with monoclonal anti-cytochrome c antibody (Pharmingen, San Diego, Calif.) followed with anti-mouse antibody conjugated to horseradish peroxidase (HRPO). Protein bands were detected by chemiluminescence (ECL, Amersham).

PARP in Jurkat cells = assay: Immunoblot analysis of PARP degradation; settings: 2 μg/ml
Method: Apoptosis induced by F035 & D1 was examined by proteolytic cleavage of poly (ADP-ribose) polymerase (PARP). Jurkat cells (2×10^6/ml) were treated with F035 (2 μg/ml) and D1 (2 μg/ml) for different lengths of time. Cell lysates were prepared in buffer containing 20 mM HEPES, 250 mM NaCl, 2 mM EDTA, 0.1% NP-40, 2 μg/ml leupeptin, 2 μg/ml aprotinin, 0.5 μg/ml benzamidine, 1 mM DTT and 1 mM PMSF. Cellular proteins (60 μg/ml) were separated on a 7.5% SDS polyacrylamide gel and electrotransferred onto a nitrocellulose membrane. The membrane was probed first with monclonal anti-PARP antibody (PharMingen) and then with anti-mouse antibody conjugated to horse radish peroxidase (HRPO). Protein bands were detected by chemiluminescense (ECL, Amersham). The extent of cleavage of the 116-kDa PARP into 85-kDa and 41-kDa peptide products was used as a measure of apoptosis (Tewari et al., 1995).
Immunoblot Analysis of PARP Degradation. Induction of apoptosis was also examined by proteolytic cleavage of PARP (Nicholson and Thornberry, 1997). Jurkat cells (3×10^6) were treated with 2 μg/ml of F094, avicin D, or avicin G at 37° C. Cell lysates were prepared in a buffer containing 20 mM HEPES, 250 mM NaCl, 2 mM EDTA, 0.1% NP-40, 2 μg/ml leupeptin, 2 μg/ml aprotinin, 0.5 μg/ml benzamidine, 1 mM DTT, and 1 mM PMSF. Cellular proteins (60 μg/ml) were separated on a 7.5% SDS polyacrylamide gel and electrotransferred onto a nitrocellulose membrane. The membrane was probed first with monoclonal anti-PARP antibody (Pharmingen) and then with anti-mouse antibody conjugated to horseradish peroxidase (HRPO). Protein bands were detected by chemiluminescence (ECL). The appearance of an 85 kDa cleavage product was used as a measure of apoptosis.

SMILES	inhibitory concentration 50 (IC50), growth inhibition [1] [µg/mL]	Cytotoxicity IC50 ([1]; pH 6.5) [µg/mL]	Cytotoxicity IC50 ([1]; pH 7.5) [µg/mL]	increase in cytosolic cytochrome c ([2]; 30 minutes post-treatment) [fold]	increase in cytosolic cytochrome c ([2]; 4 hours post-treatment) [fold]	time to (almost) complete cleavage of PARP (PARP in Jurkat cells) [h]
C=C[C@](C)(O)CC/C=C(\CO)C(=O)O[C@H]1[C@H](O)[C@@H](O)[C@H](O[C@@](C)(C=C)CC/C=C(\CO)C(=O)O[C@H]2C[C@]3(C(=O)O[C@@H]4O[C@H](CO)[C@@H](O)[C@H](O)[C@H]4O[C@@H]4O[C@@H](C)[C@H](O[C@@H]5O[C@@H](CO)[C@H](O)[C@H]5O)[C@@H](O[C@@H]5O[C@H](CO)[C@@H](O)[C@H](O)[C@H]5O)[C@H]4O)[C@H](O)C[C@]4(C)C(=CC[C@@H]5[C@@]6(C)CC[C@H](O[C@@H]7O[C@H](CO[C@@H]8O[C@H](C)[C@H](O)[C@H](O)[C@H]8O[C@@H]8OC[C@@H](O)[C@H](O)[C@H]8O)[C@@H](O)[C@H](O)[C@H]7NC(C)=O)C(C)(C)[C@@H]6CC[C@]54C)[C@@H]3CC2(C)C)O[C@@H]1C [Fraction D1]	0.320 to 0.326	1.01	0.98	1.5	3	8 to 16
C=C[C@](C)(O)CC/C=C(\C)C(=O)O[C@H]1[C@H](O)[C@@H](O)[C@H](O[C@@](C)(C=C)CC/C=C(\CO)C(=O)O[C@H]2C[C@]3(C(=O)O[C@@H]4O[C@H](CO)[C@@H](O)[C@H](O)[C@H]4O[C@@H]4O[C@@H](C)[C@H](O[C@@H]5O[C@@H](CO)[C@H](O)[C@H]5O)[C@@H](O[C@@H]5O[C@H](CO)[C@@H](O)[C@H](O)[C@H]5O)[C@H]4O)[C@H](O)C[C@]4(C)C(=CC[C@@H]5[C@@]6(C)CC[C@H](O[C@@H]7O[C@H](CO[C@@H]8O[C@H](C)[C@H](O)[C@H](O)[C@H]8O[C@@H]8OC[C@@H](O)[C@H](O)[C@H]8O)[C@@H](O)[C@H](O)[C@H]7NC(C)=O)C(C)(C)[C@@H]6CC[C@]54C)[C@@H]3CC2(C)C)O[C@@H]1C [Fraction G1]	0.160 to 0.181	0.3	0.49	3.5	8.4	≤ 4
